The text below walks through data of PMC6263544, “Second-generation pterocarpanquinones: synthesis and antileishmanial activity” (The Journal of Venomous Animals and Toxins Including …, 2018).

The test system of data set [1] is intracellular amastigotes of L. braziliensis. The data set can be described thus: Antiamastigote test, L. braziliensis in golden hamster macrophages. It counts as cell-based. To be noted: for L. braziliensis SI (Selective Index): CC50 in Macrophages/IC50 in intracellular amastigotes. As for the experimental part: Macrophages of golden hamsters were used in assays against intracellular amastigotes of L. braziliensis due to the natural resistance of mice. Resident macrophages were obtained from the peritoneal cells of golden hamsters after a peritoneal injection of 10 mL of Dulbecco’s Modified Eagle’s medium (DMEM) (Sigma-Aldrich). The peritoneal macrophages were plated onto glass coverslips placed within the wells of a 24-well culture plate and incubated at 37 °C in 5% CO2 for 1 h. After removing the nonadherent cells, the monolayers were infected with stationary-phase L. braziliensis promastigotes at a 5:1 parasite/macrophage ratio for 4 h. The infected macrophages were washed and incubated with several pterocarpanquinone concentrations (0-25 μM) for 72 h. The monolayers were then stained with Giemsa, and at least 100 infected macrophages per sample were counted under optical microscopy.
(§1) The results were expressed as an infection index (% infected cells×number of amastigotes/total number of macrophages). The 50% inhibitory concentration (IC50) was determined by nonlinear regression analysis in the software GraphPad Prism 5.

Data set [2] relates to peritoneal macrophages of Swiss mice. Further details: method as in PMID 21531758. To be noted: murine macrophage; cited from earlier work.
Data set [3] has as its system L. infantum promastigotes. Further details: method as in PMID 27067332. To be noted: read-out: L. infantum Promastigote IC50; cited from earlier work.
Data set [4] relates to intracellular amastigotes of L. amazonensis. Further details: method as in PMID 21531758. To be noted: read-out: L. amazonensis Amastigote IC50; cited from earlier work.
Data set [5] deals with L. braziliensis promastigotes. Further details: method as in PMID 25340550. To be noted: read-out: L. braziliensis Promastigote IC50; cited from earlier work.
For data set [6], the system named is intracellular amastigotes of L. amazonensis. As to the kind of experiment: Antiamastigote test, L. amazonensis in mouse peritoneal macrophages. It is filed as cell-based, Leishmania amazonensis. To be noted: for L. amazonensis SI (Selective Index): CC50 in Macrophages/IC50 in intracellular amastigotes. Here is the method: (§2) For the test against intracellular amastigotes of L. amazonensis and L. infantum, resident peritoneal macrophages (swiss mouse) were plated in RPMI (Sigma-Aldrich) at 2 × 10^6/mL (0.4 mL/well) in Lab-Tek eight-chamber slides (Nunc, Roskilde, Denmark) and incubated at 37 °C in 5% CO2 for 1 h. Stationary-phase L. amazonensis and L. infantum promastigotes were added at respective parasite/macrophage ratios of 3:1 and 5:1 for 4 h. After washing three times, pterocarpanquinones 2a-f at various concentrations were added for 72 h. Next, the slides were stained using an Instant Prov hematological dye system (Newprov, Curitiba, Brazil). The number of amastigotes was determined by counting at least 100 macrophages per sample.
as §1

In data set [7] the test system is intracellular amastigotes of L. infantum. Also on record: method as in PMID 27067332. To be noted: read-out: L. infantum Amastigote IC50; cited from earlier work.
For data set [8] the test system is unchanged. As to the kind of experiment: Antiamastigote test, L. infantum in mouse peritoneal macrophages. It is filed as cell-based, Leishmania infantum. As for the experimental part:
as §2, §1

For data set [9], the system named is L. amazonensis promastigotes. Also on record: method as in PMID 21531758. Conditions: read-out: L. amazonensis Promastigote IC50; cited from earlier work.
The test system of data set [10] is intracellular amastigotes of L. braziliensis. Further details: method as in PMID 25340550. To be noted: read-out: L. braziliensis Amastigote IC50; cited from earlier work.
Data set [11] relates to peritoneal macrophages of Swiss mice. As to the kind of experiment: Macrophage toxicity test (resazurin). It counts as cell-based. To be noted: macrophages. Here is the method: (§3) To evaluate the toxicity of pterocarpanquinones 2a-f, peritoneal macrophages of Swiss mice (2 × 10^6/mL) were incubated with pterocarpanquinones (1.25–100 μM) for 72 h at 37 °C/5% CO2. Viability was evaluated with resazurin assay as described for the antipromastigote test. The 50% cytotoxicity concentration (CC50) was determined by nonlinear regression analysis in the software GraphPad Prism 5.
A general note: Resazurin is reduced to fluorescent resorufin, in cell work by metabolically active cells.

Data set [12] can be described thus: Macrophage toxicity test (resazurin). It counts as cell-based, Swiss mice. Conditions: mouse; peritoneal macrophages of Swiss mice, 72 h, resazurin, Mean ± SEM; read-out: Murine Macrophage CC50. As for the experimental part: as §3
For data set [13], the system named is promastigotes of L. infantum. The data set can be described thus: Mitochondrial membrane potential (ΔΨm) test (rhodamine 123, flow cytometry). It counts as cell-based, Leishmania infantum. To be noted: 4 h, Rh123, IV = (MT − MC)/MC, negative = depolarization, mean ± SD. As for the experimental part: To determine the effect of pterocarpanquinones 2a-f on the ΔΨm, promastigotes of L. infantum (5 × 10^6 cells/mL) were incubated in the presence of 0–5 μM of derivatives at 26 °C. After 4 h, the parasites were incubated for 15 min with 10 μg/mL rhodamine 123 (Rh123) (Sigma-Aldrich). Data acquisition of 10,000 events and analysis were performed using the flow cytometer FACSCalibur (Becton-Dickinson, Rutherford, NJ, USA). Alteration in ΔΨm was quantified using an index of variation (IV) obtained by the eq. IV = (MT − MC)/MC [24], where MT is the median of the fluorescence of Rh123 for treated parasites and MC is the median of the fluorescence of the control parasites. Negative IV values correspond to depolarization of the mitochondrial membrane. The FCCP (Carbonyl cyanide-p-Trifluoromethoxyphenylhydrazone) 20 μM was used as positive control.
(In general: Flow cytometry measures light scatter and fluorescence of single cells or particles in a stream.)

Data set [14] deals with L. amazonensis promastigotes. As to the kind of experiment: Antipromastigote test, L. amazonensis. It counts as cell-based, Leishmania amazonensis. Conditions: Leishmania amazonensis; 72 h, resazurin, Mean ± SEM; read-out: L. amazonensis Promastigote IC50. As for the experimental part: New cultures of promastigotes were obtained from infected Balb/C mice. […] A stock solution of the compounds was prepared at 50 mM in dimethylsulfoxide (Sigma Aldrich). The maximum solvent concentration used in the assays was 0.4% in a final volume per well of 200 μL. The cultures were initiated with 1.0 × 10^6 cells/ml and maintained at 26 °C for 72 h. Inhibition of parasitic growth was determined by cell viability indicator, resazurin [23], with excitation λ = 560 nm and emission λ = 590 nm or the number of parasites was then counted in a Neubauer chamber (experiments with L. braziliensis).

Data set [15] has as its system promastigotes of L. infantum. As to the kind of experiment: Measurement of reactive oxygen species (H2DCFDA). It counts as cell-based, Leishmania infantum. Conditions: 1.25–5.0 μM. Here is the method:
Intracellular ROS levels were measured in treated and untreated cells as described previously. Briefly, 1 × 10^7 promastigotes/mL of L. infantum were incubated in Schneider’s insect medium supplemented with 20% HIFCS at 26 °C with concentrations of pterocarpanquinones 2a-f ranging from 0 to 5 μM in the presence of 20 μM H2DCFDA (Molecular Probes, Eugene, OR, USA). The fluorescence was monitored at 1 h intervals for 4 h using 485 and 530 nm as excitation and emission wavelengths, respectively, using the spectrofluorometer Spectra Max Gemini XPS (Molecular Devices, Silicon Valley, CA, USA). Antimycin A 10 μM was used as positive control.

Data set [16] has as its system L. braziliensis promastigotes. The data set can be described thus: Antipromastigote test, L. braziliensis. It is filed as cell-based. To be noted: Leishmania braziliensis; 72 h, parasites counted in Neubauer chamber, Mean ± SEM; read-out: L. braziliensis Promastigote IC50. As for the experimental part:
L. braziliensis (MCAN/BR/98/R619) was routinely isolated from hamster lesions and maintained as promastigotes in Schneider’s insect medium containing 20% HIFCS and 100 μg/ml gentamicin (Schering-Plough). New cultures of promastigotes were obtained from an infected hamster.
(§4) Leishmania promastigotes of three species were incubated in 96-well plates (Nunc, Roskilde, Denmark) under the conditions described above in either the absence or presence of different concentrations of pterocarpanquinones 2a-f (0-100 μM). A stock solution of the compounds was prepared at 50 mM in dimethylsulfoxide (Sigma Aldrich). The maximum solvent concentration used in the assays was 0.4% in a final volume per well of 200 μL. The cultures were initiated with 1.0 × 10^6 cells/ml and maintained at 26 °C for 72 h. Inhibition of parasitic growth was determined by cell viability indicator, resazurin [23], with excitation λ = 560 nm and emission λ = 590 nm or the number of parasites was then counted in a Neubauer chamber (experiments with L. braziliensis). The 50% inhibitory concentration (IC50) was determined by nonlinear regression analysis in the software GraphPad Prism 5.

Data set [17] deals with L. infantum promastigotes. The data set can be described thus: Antipromastigote test, L. infantum. It counts as cell-based, Leishmania infantum. Conditions: Leishmania infantum; 72 h, resazurin, Mean ± SEM; read-out: L. infantum Promastigote IC50. As for the experimental part:
Leishmania infantum (MHOM/MA67ITMAP263) parasites were isolated from female BALB/c mice infected and cultured at 26 °C in Schneider’s insect medium supplemented with 20% HIFCS, streptomycin at 100 μg/ml and penicillin at 100 U/ml. New cultures of promastigotes were obtained from infected Balb/C mice.
as §4

Read-outs that look alike come from different tables or passages of the source.

A word on the IC50: it is the point on the concentration scale where inhibition reaches its midpoint. For `O=C1C2=C(C(=O)c3ccccc31)[C@H]1Oc3ccccc3[C@H]1CO2` [LQB-118 (1)], the “L. braziliensis SI (Selective Index)” value in data set [1] is reported as 2.46. Further, the CC50 in data set [2] was 18.5 µM. Besides, the IC50 in data set [3] was 4.08 µM; in data set [4] it was 1.45 µM; in [5], 3.4 µM; in data set [7], 3.25 µM; in [9], 1.73 µM; in data set [10] it was 7.5 µM. Also, the “L. amazonensis SI (Selective Index)” value in data set [6] is recorded as 12.73. For the same compound, the “L. infantum SI (Selective Index)” value in data set [8] (CC50 in Macrophages/IC50 in intracellular amastigotes) worked out at 5.68.

Regarding `O=C1C2=C(C(=O)c3ccccc31)[C@H]1COc3ccc(Cl)cc3[C@H]1O2` [LQB 236 (2c)], in data set [1], the “L. braziliensis SI (Selective Index)” value amounted to 5.26. Moreover, the IC50 is 8.34 ± 1.47 µM in data set [1] (Leishmania braziliensis, Peritoneal macrophage, intracellular amastigotes in golden hamster peritoneal macrophages, 72 h, infection index, Mean ± SEM, read-out: L. braziliensis Amastigote IC50); 1.15 ± 0.18 µM in [14]; 0.6 ± 0.13 µM in data set [6] (Leishmania amazonensis, Peritoneal macrophage, intracellular amastigotes in mouse peritoneal macrophages, 72 h, infection index, Mean ± SEM, read-out: L. amazonensis Amastigote IC50); > 25 µM in [8] (Leishmania infantum, Peritoneal macrophage, intracellular amastigotes in mouse peritoneal macrophages, 72 h, infection index, Mean ± SEM, read-out: L. infantum Amastigote IC50); 17.9 ± 1.12 µM in data set [16]; 1.8 ± 0.3 µM in [17]. In addition, in data set [11], the “increased cytotoxicity when compared to 2b” value is on record as 2.6 times. Moreover, the CC50 at 72 h in data set [12] was determined as 43.9 ± 0.6 µM. Also, the “Δѱm index of variation (IV)” value in data set [13] (1.25 μM) is −0.360 ± 0.16; in data set [13] (2.5 μM) it was −0.258 ± 0.17. In data set [6], the “L. amazonensis SI (Selective Index)” value was determined as 73.16. The “ROS production, dependence on concentration” value in data set [15] (4 h) is reported as “only increased ROS production when the parasite was incubated with the highest concentration of 5 μM”. Also, the “Early ROS production after 4 h of treatment” value in data set [15] (compared with control, listed as 2c) is “induction of increased ROS production”.
